Counter-ions that a name gives are not always drawn. Like-named read-outs stand apart in the source and are kept apart here.
Columns and labels:
[1] = target: T1, serotonin transporter (Rattus norvegicus, UniProt P31652); experiment: 3H-paroxetine displacement from rat frontal cortical membranes (serotonin transporter affinity); format: binding
T1 construct: displace ^3H-paroxetine from male rat frontal cortical membranes; from tissue; host or cells: male rat frontal cortex membranes

[2] = target: T2, human 5-HT1A receptors (Homo sapiens, UniProt P08908); experiment: [3H] 8-OHDPAT displacement from 5-HT1A receptor in transfected CHO cells; format: binding
T2 construct: expressed in transfected cells; host or cells: CHO cells
T2 sequence (P08908 1-422): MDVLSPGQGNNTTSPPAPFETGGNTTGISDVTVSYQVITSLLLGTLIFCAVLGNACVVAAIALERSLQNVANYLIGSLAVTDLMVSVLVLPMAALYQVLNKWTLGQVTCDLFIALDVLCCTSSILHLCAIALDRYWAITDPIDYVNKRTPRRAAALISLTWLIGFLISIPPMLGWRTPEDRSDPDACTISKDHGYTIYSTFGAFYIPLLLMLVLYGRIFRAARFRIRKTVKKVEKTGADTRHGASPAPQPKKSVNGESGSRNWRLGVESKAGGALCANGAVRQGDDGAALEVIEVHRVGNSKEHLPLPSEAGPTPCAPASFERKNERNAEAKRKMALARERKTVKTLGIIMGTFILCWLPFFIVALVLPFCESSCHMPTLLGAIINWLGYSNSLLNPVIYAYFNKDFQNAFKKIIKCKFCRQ
From the text: High affinity for the serotonin 5-HT1A receptor was established by testing the claimed compound's ability to displace [^3H] 8-OHDPAT (dipropylaminotetralin) from the 5-HT1A serotonin receptor following a modification of the procedure of Hall et al., J. Neurochem. 44, 1685 (1985) which utilizes CHO cells stably transfected with human 5-HT1A receptors.

[3] = target: T3, cloned human 5-HT1A receptors (Homo sapiens, UniProt P08908); experiment: 35S-GTPγS binding assay for antagonist activity at 5-HT1A receptors; format: biochemical; settings: membranes with cloned human 5-HT1A receptors, reversal of agonist 8-OHDPAT; for Emax: read-out: 5-HT1A Function (Imax), maximum inhibitory effect; for IC50: read-out: 5-HT1A Function IC50
T3 construct: expressed in transfected cells
T3 sequence (P08908 1-422): T2 sequence (P08908 1-422)
Procedure: Antagonist activity at 5-HT1A receptors was established by using a ^35S-GTPγS binding assay similar to that used by Lazareno and Birdsall (Br. J. Pharmacol. 109: 1120, 1993), in which the test compound's ability to affect the binding of ^35S-GTPγS to membranes containing cloned human 5-HT1A receptors was determined. Agonists produce an increase in binding whereas antagonists produce no increase but rather reverse the effects of the standard agonist 8-OHDPAT. The test compound's maximum inhibitory effect is represented as the Imax, while its potency is defined by the IC50.

[4] = displacement of [3H] 8-OHDPAT, CHO cells stably transfected with human 5-HT1A receptors, read-out: 5-HT1A Receptor Affinity KI
[5] = displacement of 3H-paroxetine, male rat frontal cortical membranes, read-out: 5-HT Transporter Affinity KI

T1 sequence (P31652 whole entry): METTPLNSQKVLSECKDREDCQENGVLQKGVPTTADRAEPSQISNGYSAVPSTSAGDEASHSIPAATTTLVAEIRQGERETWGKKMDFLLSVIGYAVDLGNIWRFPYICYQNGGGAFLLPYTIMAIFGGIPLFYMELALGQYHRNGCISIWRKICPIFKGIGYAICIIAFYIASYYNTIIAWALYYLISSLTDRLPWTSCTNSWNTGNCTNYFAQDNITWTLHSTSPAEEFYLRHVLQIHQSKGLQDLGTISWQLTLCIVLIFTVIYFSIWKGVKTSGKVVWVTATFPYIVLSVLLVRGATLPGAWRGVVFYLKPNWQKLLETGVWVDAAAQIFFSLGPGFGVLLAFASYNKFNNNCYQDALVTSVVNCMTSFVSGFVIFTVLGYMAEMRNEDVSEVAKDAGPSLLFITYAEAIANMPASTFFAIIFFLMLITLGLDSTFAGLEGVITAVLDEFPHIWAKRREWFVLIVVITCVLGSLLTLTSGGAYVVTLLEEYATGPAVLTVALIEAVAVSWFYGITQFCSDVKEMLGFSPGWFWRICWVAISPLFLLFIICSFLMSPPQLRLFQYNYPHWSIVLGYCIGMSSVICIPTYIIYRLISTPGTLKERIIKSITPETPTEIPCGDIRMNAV

Ki [1, 5] [nM]	SMILES	melting point [°C]	Ki [1] [nM]	Ki [2] [nM]	Emax [3] [%]	IC50 [3] [nM]	Ki [2, 4] [nM]
	Cc1ccc2c3c(ccc2n1)OCC(CN1CC=C(c2csc4ccc(F)cc24)CC1)O3 (stereo not shown) (as salt: oxalate) [Example 3, 2-[4-(5-Fluoro-benzo[b]thiophen-3-yl)-3,6-dihydro-2H-pyridin-1-ylmethyl]-8-methyl-2,3-dihydro-[1,4]dioxino[2,3-f]quinoline]	197 to 201					
	C1=C(c2csc3ccccc23)CCN(CC2COc3ccc4ncccc4c3O2)C1 (stereo not shown) (as salt: oxalate) [Example 6, 2-(4-Benzo[b]thiophen-3-yl-3,6-dihydro-2H-pyridin-1-ylmethyl)-2,3-dihydro-[1,4]dioxino[2,3-f]quinoline]	178 to 180					
	C1=C(c2csc3ccccc23)CCN(CC2COc3ccc4[nH]ccc4c3O2)C1 (stereo not shown) [Example 7, 2-(4-Benzo[b]thiophen-3-yl-3,6-dihydro-2H-pyridin-1-ylmethyl)-2,3-dihydro-7H-[1,4]dioxino[2,3-e]indole]		2.48	4.74	100	25.8	
	Cc1ccc2c3c(ccc2n1)OCC(CN1CC=C(c2csc4ccc(F)cc24)CC1)O3 (stereo not shown) [Example 3, 2-[4-(5-Fluoro-benzo[b]thiophen-3-yl)-3,6-dihydro-2H-pyridin-1-ylmethyl]-8-methyl-2,3-dihydro-[1,4]dioxino[2,3-f]quinoline]		18.5	15.9	87.4	437	
	Fc1ccc2scc(C3=CCN(CC4COc5ccc6ncccc6c5O4)CC3)c2c1 (stereo not shown) (as salt: oxalate) [Example 5, 2-[4-(5-Fluoro-benzo[b]thiophen-3-yl)-3,6-dihydro-2H-pyridin-1-ylmethyl]-2,3-dihydro-[1,4]dioxino[2,3-f]quinoline]	183 to 185					
	Cc1ccc2c3c(ccc2n1)OCC(CN1CC=C(c2cc4ccccc4s2)CC1)O3 (stereo not shown) [Example 2, 2-(4-Benzo[b]thiophen-2-yl-3,6-dihydro-2H-pyridin-1-ylmethyl)-8-methyl-2,3-dihydro-[1,4]dioxino[2,3-f]quinoline]	174 to 176	78				21.6
	Fc1ccc2scc(C3=CCN(CC4COc5ccc6ncccc6c5O4)CC3)c2c1 (stereo not shown) [Example 5, 2-[4-(5-Fluoro-benzo[b]thiophen-3-yl)-3,6-dihydro-2H-pyridin-1-ylmethyl]-2,3-dihydro-[1,4]dioxino[2,3-f]quinoline]		35	23.4	30	1000	
17	Cc1ccc2c3c(ccc2n1)OCC(CN1CCC(c2nc4ccccc4o2)CC1)O3 (stereo not shown) [Example 14, 2-(4-Benzoxazol-2-yl-piperidin-1-ylmethyl)-8-methyl-2,3-dihydro-[1,4]dioxino[2,3-f]quinoline]	128 to 130			100	167	19.8
	Cc1ccc2c3c(ccc2n1)OCC(CN1CC=C(c2csc4ccc(Cl)cc24)CC1)O3 (stereo not shown) [Example 13, 2-[4-(5-Chloro-benzo[b]thiophen-3-yl)-3,6-dihydro-2H-pyridin-1-ylmethyl]-8-methyl-2,3-dihydro-[1,4]dioxino[2,3-f]quinoline]		94		100	2520	135
	COc1cccc2c(C3=CCN(C[C@H]4COc5ccc6nc(C)ccc6c5O4)CC3)coc12 [Example 4, 2-[4-(7-Methoxy-benzofuran-3-yl)-3,6-dihydro-2H-pyridin-1-ylmethyl]-8-methyl-2,3-dihydro-[1,4]dioxino[2,3-f]guinoline]		70	2.66	91	167	
	Fc1ccc2scc(C3=CCN(C[C@H]4COc5ccc6[nH]ccc6c5O4)CC3)c2c1 [Example 8, 2-[4-(5-Fluoro-benzo[b]thiophen-3-yl)-3,6-dihydro-2H-pyridin-1-ylmethyl]-2,3-m-dihydro-7H-[1,4]dioxino[2,3-e]indole]		33	3.45	100	147	
	Cc1ccc2c3c(ccc2n1)OCC(CN1CC=C(c2csc4ccccc24)CC1)O3 (stereo not shown) (as salt: oxalate) [Example 1, 2-(4-Benzo[b]thiophen-3-yl-3,6-dihydro-2H-pyridin-1-ylmethyl)-8-methyl-2,3-dihydro-[1,4]dioxino[2,3-f]quinoline]	129 to 133					
	Cc1ccc2c3c(ccc2n1)OCC(CN1CC=C(c2cccc4ccsc24)CC1)O3 (stereo not shown) [Example 10, 2-(4-Benzo[b]thiophen-7-yl-3,6-dihydro-2H-pyridin-1-ylmethyl)-8-methyl-2,3-dihydro-[1,4]dioxino[2,3-f]quinoline]		10	34.9	40.5	392	
	Cc1ccc2c3c(ccc2n1)OCC(CN1CC=C(c2cccc4ccsc24)CC1)O3 (stereo not shown) (as salt: oxalate) [Example 10, 2-(4-Benzo[b]thiophen-7-yl-3,6-dihydro-2H-pyridin-1-ylmethyl)-8-methyl-2,3-dihydro-[1,4]dioxino[2,3-f]quinoline]	183 to 185					
	Cc1nc2ccc3c(c2o1)OC(CN1CC=C(c2csc4ccccc24)CC1)CO3 (stereo not shown) [Example 9, 8-(4-Benzo[b]thiophen-3-yl-3,6-dihydro-2H-pyridin-1-ylmethyl)-2-methyl-7,8-dihydro-[1,4]dioxino[2,3-g][1,3]benzoxazole]		13	20.2	50	1980	
	Cc1ccc2c3c(ccc2n1)OCC(CN1CC=C(c2csc4ccccc24)CC1)O3 (stereo not shown) [Example 1, 2-(4-Benzo[b]thiophen-3-yl-3,6-dihydro-2H-pyridin-1-ylmethyl)-8-methyl-2,3-dihydro-[1,4]dioxino[2,3-f]quinoline]		9.25	4.89	100	499	
	Cc1nc2ccc3c(c2o1)OC(CN1CC=C(c2csc4ccccc24)CC1)CO3 (stereo not shown) (as salt: oxalate) [Example 9, 8-(4-Benzo[b]thiophen-3-yl-3,6-dihydro-2H-pyridin-1-ylmethyl)-2-methyl-7,8-dihydro-[1,4]dioxino[2,3-g][1,3]benzoxazole]	126 to 129					
	C1=C(c2csc3ccccc23)CCN(CC2COc3ccc4ncccc4c3O2)C1 (stereo not shown) [Example 6, 2-(4-Benzo[b]thiophen-3-yl-3,6-dihydro-2H-pyridin-1-ylmethyl)-2,3-dihydro-[1,4]dioxino[2,3-f]quinoline]		8.5	14.5	100	146	
109	Cc1ccc2c3c(ccc2n1)OCC(CN1CCC(c2cc4ccccc4o2)CC1)O3 (stereo not shown) [Example 12, 2-(4-Benzofuran-2-yl-piperidin-1-ylmethyl)-8-methyl-2,3-dihydro-[1,4]dioxino[2,3-f]quinoline]	103 to 104			100	590	8.67

SMILES	Ki [1, 5] [nM]	melting point [°C]	Ki [1] [nM]	Ki [2] [nM]	Emax [3] [%]	IC50 [3] [nM]	Ki [2, 4] [nM]
Cc1ccc2c3c(ccc2n1)OCC(CN1CC=C(c2cc4ccccc4o2)CC1)O3 (stereo not shown) [Example 11, 2-(4-Benzofuran-2-yl-3,6-dihydro-2H-pyridin-1-ylmethyl)-8-methyl-2,3-dihydro-[1,4]dioxino[2,3-f]quinoline]	213	149 to 150		15.7	70	15500	

Source: US7479500B2, “Antidepressant piperidine derivatives of heterocyclefused benzodioxans” (Wyeth, priority 2002, dated 2009)
